In patent EP4653437A2 (Innovo Therapeutics Inc., priority 2023, dated 2024):

Legend:
A549 cells = assay: Measurement of PGE2-increasing activity in A549 cells (IL-1β stimulated, PGE2 quantified in supernatant); format: cell-based; conditions: Homo sapiens, 24 h; concentration of 1 µM of each compound; IL-1β treated A549 cells; read-out: Increased PGE2 production in A549 cells
Summary of the method: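 A549 cells grown 24 h in F12K with 10% FBS, then switched to serum-free medium with or without IL-1β and compound (0.1% DMSO final). After 24 h at 37 °C, 5% CO2, supernatant PGE2 quantified by immunoassay.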

human 15-PGDH = molecular target: T1, human 15-PGDH (Homo sapiens, UniProt P15428); assay: Evaluation of 15-PGDH inhibitory activity (fluorescence enzyme assay, NAD+/PGE2); format: biochemical; conditions: human 15-PGDH enzyme, fluorescence Vmax
T1 construct: purchased R&D System 5660-DH
T1 sequence (P15428 1-266): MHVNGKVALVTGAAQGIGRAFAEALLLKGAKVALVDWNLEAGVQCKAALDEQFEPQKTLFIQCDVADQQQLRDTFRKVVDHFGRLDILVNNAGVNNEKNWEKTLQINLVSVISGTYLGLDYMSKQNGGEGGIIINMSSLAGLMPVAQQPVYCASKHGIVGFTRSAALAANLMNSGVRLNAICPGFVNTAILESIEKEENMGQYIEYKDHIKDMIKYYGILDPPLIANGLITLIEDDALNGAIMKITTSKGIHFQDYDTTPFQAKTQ
Protocol: 15-PGDH inhibition activity of Example compounds was measured as follows. 6.7 ng of human 15-PGDH (R&D System# 5660-DH) enzyme (10 µL) was added to a black 96 well plate, 60 µL of buffer (50 mM Tris-HCl, pH 7.5, 0.01% Tween 20) was added, and 10 µL of 200 µM β-Nicotinamide adenine dinucleotide sodium salt (Sigma, Cat# N0632-5G) was added. 10 µL of (10x) compound solution in DMSO was added and reacted for 10 minutes at room temperature.

Structure (SMILES)	fold induction at 1 µM (A549 cells)	IC50 (human 15-PGDH) [nM]
O=C(c1cnn2c(-c3ccc(N4CC(F)C4)nc3)cccc12)N1CCCCC1 [Example 208, (7-(6-(3-fluoroazetidin-1-yl)pyridin-3-yl)pyrazolo[1,5-a]pyridin-3-yl)(piperidin-1-yl)methanone]	> 1.5	≤ 100
Cc1ncc(-c2cc(-c3cccc4c(C(=O)N5CCCCC5)cnn34)cc(N3CCOCC3)n2)cn1 [Example 377, (7-(2-(2-methylpyrimidin-5-yl)-6-morpholinopyridin-4-yl)pyrazolo[1,5-a]pyridin-3-yl)(piperidin-1-yl)methanone]	> 1.5	≤ 100
O=C(c1cnn2c(-c3cccc(C=NO)c3)cccc12)N1CCCCC1 [Example 253, 3-(3-(piperidine-1-carbonyl)pyrazolo[1,5-a]pyridin-7-yl)benzaldehyde oxime]	> 1.5	≤ 100
Cc1nc(-c2ccc(-c3cccc4c(C(=O)N5CCCCC5)cnn34)cc2F)no1 [Example 303, [7-[3-fluoro-4-(5-methyl-1,2,4-oxadiazol-3-yl)phenyl]pyrazolo[1,5-a]pyridin-3-yl]-(1-piperidyl)methanone]	> 1.5	≤ 100
CC1CCCN(C(=O)c2cnn3c(-c4ccc(N5CCOC5=O)nc4)cccc23)C1 (stereo not drawn) [Example 353, 3-(5-(3-(3-methylpiperidine-1-carbonyl)pyrazolo[1,5-a]pyridin-7-yl)pyridin-2-yl)oxazolidin-2-one]	> 1.5	≤ 100
Cn1cnc2cc(-c3cccc4c(C(=O)N5CCCCC5)cnn34)ccc2c1=O [Example 251, 3-methyl-7-(3-(piperidine-1-carbonyl)pyrazolo[1,5-a]pyridin-7-yl)quinazolin-4(3H)-one]	> 1.5	≤ 100
Cc1nc(-c2ccc(-c3cccc4c(C(=O)N5CCCCC5)cnn34)cc2)no1 [Example 118, (7-(4-(5-methyl-1,2,4-oxadiazol-3-yl)phenyl)pyrazolo[1,5-a]pyridin-3-yl)(piperidin-1-yl)methanone]	> 1.5	≤ 100
O=C(c1cnn2c(-c3ccccc3)cccc12)N1CC2CCC1CC2 [Example 228, (2-azabicyclo[2.2.2]octan-2-yl)(7-phenylpyrazolo[1,5-a]pyridin-3-yl)methanone]	< 1.5	≤ 100
O=C(c1cnn2c(-c3cnc(N4CCOC4=O)c(F)c3)cccc12)N1CCCCC1 [Example 323, 3-(3-fluoro-5-(3-(piperidine-1-carbonyl)pyrazolo[1,5-a]pyridin-7-yl)pyridin-2-yl)oxazolidin-2-one]	> 1.5	≤ 100
O=C(c1cnn2c(-c3ccc(N4CCOC4=O)nc3)cccc12)N1CCCC(F)C1 (stereo not drawn) [Example 383, 3-(5-(3-(3-fluoropiperidine-1-carbonyl)pyrazolo[1,5-a]pyridin-7-yl)pyridin-2-yl)oxazolidin-2-one]	> 1.5	≤ 100
Cc1nc(-c2ncc(-c3cccc4c(C(=O)N5CCCCC5)cnn34)cn2)no1 [Example 317, [7-[2-(5-methyl-1,2,4-oxadiazol-3-yl)pyrimidin-5-yl]pyrazolo[1,5-a]pyridin-3-yl]-(1-piperidyl)methanone]	> 1.5	≤ 100
Cc1ncc(-c2cc(-c3cccc4c(C(=O)N5CCCCC5)cnn34)cc(N3CCOC3=O)n2)cn1 [Example 372, 3-(6-(2-methylpyrimidin-5-yl)-4-(3-(piperidine-1-carbonyl)pyrazolo[1,5-a]pyridin-7-yl)pyridin-2-yl)oxazolidin-2-one]	> 1.5	≤ 100
O=C1NCc2ccc(-c3cccc4c(C(=O)N5CC=CCC5)cnn34)cc21 [Example 401, 6-(3-(1,2,3,6-tetrahydropyridine-1-carbonyl)pyrazolo[1,5-a]pyridin-7-yl)isoindolin-1-one]	> 1.5	≤ 100
CN1CCC(NC(=O)c2ccc(-c3cccc4c(C(=O)N5CCCCC5)cnn34)cn2)CC1 [Example 81, N-(1-methylpiperidin-4-yl)-5-(3-(piperidine-1-carbonyl)pyrazolo [1,5-a]pyridin-7-yl)picolinamide]	> 1.5	≤ 100
O=C(c1cncc(-c2cccc3c(C(=O)N4CCCCC4)cnn23)c1)N1CCOCC1 [Example 39, (7-(5-(morpholine-4-carbonyl)pyridin-3-yl)pyrazolo[1,5-a]pyridin-3-yl)(piperidin-1-yl)methanone]	< 1.5	≤ 100
O=C(COc1ccc(Cl)cc1)Nc1cncc(-c2cccc3c(C(=O)N4CCCCC4)cnn23)c1 [Example 406, 2-(4-chlorophenoxy)-N-(5-(3-(piperidine-1-carbonyl)pyrazolo[1,5-a]pyridin-7-yl)pyridin-3-yl)acetamide]	> 1.5	≤ 100
Nc1cnn(-c2cc(-c3cccc4c(C(=O)N5CCCCC5)cnn34)cc(Br)n2)c1 [Example 356, (7-(2-(4-amino-1H-pyrazol-1-yl)-6-bromopyridin-4-yl)pyrazolo|[1,5-a]pyridin-3-yl)(piperidin-1-yl)methanone]	> 1.5	≤ 100
O=C(c1ccc(-c2cccc3c(C(=O)N4CCCCC4)cnn23)cn1)N1CC(F)(F)C1 [Example 237, (3,3-difluoroazetidin-1-yl)-[5-[3-(piperidine-1-carbonyl)pyrazolo[1,5-a]pyridin-7-yl]-2-pyridyl]methanone]	> 1.5	≤ 100
NC(=O)c1ncc(-c2ccc(-c3cccc4c(C(=O)N5CCCCC5)cnn34)cc2)cn1 [Example 307, 5-[4-[3-(piperidine-1-carbonyl)pyrazolo[1,5-a]pyridin-7-yl]phenyl]pyrimidine-2-carboxamide]	> 1.5	≤ 100
COCCC(=O)Nc1ccc(-c2cccc3c(C(=O)N4CCCCC4)cnn23)cc1 [Example 98, 3-methoxy-N-(4-(3-(piperidine-1-carbonyl)pyrazolo[1,5-a]pyridin-7-yl)phenyl)propanamide]	> 1.5	≤ 100
O=C(c1cnn2c(-c3cccc(-c4noc(=O)[nH]4)c3)cccc12)N1CCCCC1 [Example 115, 3-(3-(3-(piperidine-1-carbonyl)pyrazolo[1,5-a]pyridin-7-yl)phenyl)-1,2,4-oxadiazol-5(4H)-one]	> 1.5	≤ 100
O=C(Nc1ccc(-c2cccc3c(C(=O)N4CCCCC4)cnn23)cn1)c1cccnc1 [Example 287, N-(5-(3-(piperidine-1-carbonyl)pyrazolo[1,5-a]pyridin-7-yl)pyridin-2-yl)nicotinamide]	> 1.5	≤ 100
CCCCC(=O)c1cnn2c(-c3cnc4ccccc4c3)cccc12 [Example 151, 1-(7-(quinolin-3-yl)pyrazolo[1,5-a]pyridin-3-yl)pentan-1-one]	> 1.5	≤ 100
O=C(c1cnn2c(-c3cncc(F)c3)cccc12)N1CCCCC1 [Example 284, (7-(5-fluoropyridin-3-yl)pyrazolo[1,5-a]pyridin-3-yl)(piperidin-1-yl)methanone]	> 1.5	≤ 100
O=C(c1cnn2c(-c3ccnc(N4CC(F)C4)c3)cccc12)N1CCCCC1 [Example 257, (7-(2-(3-fluoroazetidin-1-yl)pyridin-4-yl)pyrazolo[1,5-a]pyridin-3-yl)(piperidin-1-yl)methanone]	< 1.5	≤ 100
O=C(c1ccc(-c2cccc3c(C(=O)N4CCCCC4)cnn23)cn1)N1CC2(CCC2)C1 [Example 214, 2-azaspiro[3.3]heptan-2-yl-[5-[3-(piperidine-1-carbonyl)pyrazolo[1,5-a]pyridin-7-yl]-2-pyridyl]methanone]	> 1.5	≤ 100
O=C(c1cnn2c(-c3csc4ccccc34)cccc12)N1CCCCC1 [Example 124, (7-(benzo[b]thiophen-3-yl)pyrazolo[1,5-a]pyridin-3-yl)(piperidin-1-yl)methanone]	> 1.5	≤ 100
CC1CCCN(C(=O)c2cnn3c(-c4ccc5c(c4)C(=O)NC5)cccc23)C1 (stereo not drawn) [Example 387, 6-(3-(3-methylpiperidine-1-carbonyl)pyrazolo[1,5-a]pyridin-7-yl)isoindolin-1-one]	> 1.5	≤ 100
O=C(c1cnn2c(-c3ccc(N4CCOC4=O)nc3)cccc12)N1CCCC(F)(F)C1 [Example 384, 3-(5-(3-(3,3-difluoropiperidine-1-carbonyl)pyrazolo[1,5-a]pyridin-7-yl)pyridin-2-yl)oxazolidin-2-one]	> 1.5	≤ 100
O=C(Nc1cncc(-c2cccc3c(C(=O)N4CCCCC4)cnn23)c1)c1cccnc1 [Example 326, N-(5-(3-(piperidine-1-carbonyl)pyrazolo[1,5-a]pyridin-7-yl)pyridin-3-yl)nicotinamide]	> 1.5	≤ 100
